Assay results from patent publication US4800194A, “Acylphosphorotriamides useful as lipid-altering agents” (priority 1986, dated 1989).

Experiments:
pseudocholinesterase [1] = target: T1, pseudocholinesterase (Homo sapiens, UniProt P06276); test: Inhibition of human plasma pseudocholinesterase (PChE) activity (Test Method 1); assay type: biochemical; conditions: 30 min preincubation
T1 construct: a 100 μl aliquot of human plasma; from tissue; host or cells: human plasma (EDTA blood, stored frozen)
T1 sequence (P06276 29-602): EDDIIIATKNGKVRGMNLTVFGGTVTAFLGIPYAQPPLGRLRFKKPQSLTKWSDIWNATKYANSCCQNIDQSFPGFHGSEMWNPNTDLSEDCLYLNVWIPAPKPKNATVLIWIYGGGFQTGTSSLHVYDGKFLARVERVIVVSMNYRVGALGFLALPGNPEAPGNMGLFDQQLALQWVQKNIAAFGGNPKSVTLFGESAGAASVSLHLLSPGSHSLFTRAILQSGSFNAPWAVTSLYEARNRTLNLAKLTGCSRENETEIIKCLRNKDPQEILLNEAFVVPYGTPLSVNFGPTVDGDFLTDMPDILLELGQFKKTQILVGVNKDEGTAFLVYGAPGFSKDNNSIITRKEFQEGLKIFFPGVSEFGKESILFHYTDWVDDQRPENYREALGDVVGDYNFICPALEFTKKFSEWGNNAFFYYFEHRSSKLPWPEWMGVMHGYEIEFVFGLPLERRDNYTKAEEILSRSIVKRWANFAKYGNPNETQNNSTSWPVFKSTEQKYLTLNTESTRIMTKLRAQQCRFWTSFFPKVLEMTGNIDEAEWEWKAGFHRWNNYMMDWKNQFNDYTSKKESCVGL
Description: (§1) The following method was used to determine the relative inhibition of pseudocholinesterase and acetylcholinesterase by compounds of the present invention.
Plasma (Source of Pseudocholinesterase Enzyme)
Human Plasma was obtained from blood which was collected in ethylenediaminetetraacetic acid (EDTA) treated tubes. Collected plasma was stored frozen at -20° C. until use.
(§2) The buffer/chromogen solution was 0.25 mM 5,5'-dithiobis-[2-nitrobenzoic acid] (chromogen), 50 mM phosphate buffer, pH 7.2. In making up the buffer/chromogen solution and to keep it as colorless as possible, the phosphate buffer was first adjusted to pH 7.1 with NaOH; the chromogen was then added and dissolved; the pH was adjusted to 7.2; and the final volume was adjusted with addition of Milli-Q water. 5,5'-dithiobis-(2-nitrobenzoic acid) was obtained from Sigma Chemicals, St. Louis, MO.
(§3) The substrate solution for the pseudocholinesterase assay was 156 mM S-butyrylthiocholine iodide, and the substrate solution for the acetylcholinesterase assay was 156 mM S-acetylthiocholine iodide. Both substrate compounds were obtained from Sigma Chemicals.
(§4) Test Compound Stock Solutions
(§5) Solutions of all test compounds were made up at 2 μM, 20 μM, and 200 μM concentrations (in 0.9% saline solution) except as noted where lower concentrations were necessary because of decreased solubility of the compound in saline solution.
Pseudocholinesterase (PChE) Assay
In three separate tubes, a 100 μl aliquot of either 0.9% saline solution, 2 μM test compound solution, or 20 μM test compound solution was mixed with a 100 μl aliquot of human plasma, and the tubes were placed in a 35° C. water bath. Four cuvettes, each containing 3 ml buffer/chromogen solution mixed with 100 μl substrate solution (156 mM S-butyrylthiocholine iodide), had been placed in a heated cuvette holder (35° C.) in a Beckman DU-8B Spectrophotometer (Beckman Instruments). After the temperature of the buffer/chromogen/substrate solution in the cuvette had equilibrated for about 10 minutes, and after 0 or 30 minutes incubation of the plasma/test compound solution, a 25 μl aliquot of the plasma/test compound solutions was added to the corresponding cuvettes numbered 2-4. Cuvette #1 remained a blank. After mixing, the net absorbance of each cuvette was determined at 405 nm every 35 seconds for ten readings. From a plot of net absorbance versus time, the initial linear portion of the curve was determined, and a rate of absorbance change per minute was calculated. The positive control (100% PChE activity) was the plasma/saline solution.
(§6) Each compound was tested for its ability to inhibit plasma pseudocholinesterase activity and acetylcholinesterase activity. Because of variation in the time points in the linear portion of the curve, inhibition values below 10-15% and higher than 85-90% are nearly indistinguishable from 0% and 100%, respectively.

acetylcholinesterase = target: T2, acetylcholinesterase (Homo sapiens, UniProt P22303); test: Inhibition of acetylcholinesterase (AChE) activity of lysed human red blood cells (Test Method 1); assay type: biochemical; conditions: 60 min preincubation
T2 construct: The supernatant (lysed RBC's) was stored frozen; from tissue; host or cells: lysed human red blood cells (supernatant of hypotonic lysis)
T2 sequence (P22303 other isoform, or with tags, fused parts or gaps): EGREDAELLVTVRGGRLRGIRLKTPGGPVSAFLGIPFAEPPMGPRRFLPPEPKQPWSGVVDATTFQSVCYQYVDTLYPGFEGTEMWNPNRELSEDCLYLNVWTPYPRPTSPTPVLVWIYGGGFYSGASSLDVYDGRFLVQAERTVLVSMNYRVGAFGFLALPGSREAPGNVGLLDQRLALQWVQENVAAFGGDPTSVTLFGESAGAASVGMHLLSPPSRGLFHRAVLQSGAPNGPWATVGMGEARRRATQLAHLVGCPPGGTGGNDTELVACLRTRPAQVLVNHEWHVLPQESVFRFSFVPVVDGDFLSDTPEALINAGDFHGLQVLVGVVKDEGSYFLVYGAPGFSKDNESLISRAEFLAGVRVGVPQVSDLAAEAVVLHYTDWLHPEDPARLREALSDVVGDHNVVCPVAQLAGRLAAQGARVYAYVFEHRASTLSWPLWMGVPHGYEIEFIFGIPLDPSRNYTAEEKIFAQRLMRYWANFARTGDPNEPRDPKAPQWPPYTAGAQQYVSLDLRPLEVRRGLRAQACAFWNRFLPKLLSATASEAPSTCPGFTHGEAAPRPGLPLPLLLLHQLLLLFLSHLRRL
Description: as §1
Lysed Red Blood Cells (RBC's) (Source of Acetylcholinesterase Enzyme)
Human blood which was collected in EDTA treated tubes was centrifuged at 1500×g for 10 min. at 4° C. One volume of chilled 0.9% saline solution was gently mixed with one volume of packed RBC's. One volume of this suspension was then washed three times with ten volumes of chilled 0.9% saline solution (4° C.). Each wash was centrifuged at 1500×g for 10 min. at 4° C. and supernatant was discarded. After the last wash the supernatant was replaced with deionized, distilled water (treated by Milli-Q apparatus, Millipore Corp., Bedford, MA) (4° C.). After 15 min. at 4° C. the suspension was centrifuged at 1500×g for 10 min. at 4° C. The supernatant (lysed RBC's) was stored frozen at -20° C. until use.
as §2, §3, §4, §5
Acetylcholinesterase (AChE) Assay
The acetylcholinesterase assay was performed identically to the pseudocholinesterase assay with the following exceptions. The concentrations of the stock solutions of test compounds were 20 μM and 200 μM, instead of 2 μM and 20 μM, and the substrate solution was 156 mM S-acetylthiocholine iodide instead of S-butyrylthiocholine iodide. The lysed RBC's/test compound solution was incubated for 0 and 60 minutes instead of 0 and 30 minutes before being added to the cuvette containing the buffer/chromogen/substrate solution. From a plot of net absorbance versus time there was an initial period before the curve reached a steady linear rate. From this linear portion of the curve a rate of absorbance change per minute was calculated.
as §6

[2] = accidental poisoning; cited from earlier work
pseudocholinesterase [3] = conditions: accidental poisoning; cited from earlier work

| SMILES | inhibition at 1 µM (pseudocholinesterase [1]) | inhibition at 10 µM (pseudocholinesterase [1]; 10 μM) | inhibition at 10 µM (acetylcholinesterase) | inhibition at 100 µM (acetylcholinesterase) | further results |
| --- | --- | --- | --- | --- | --- |
| N#Cc1ccc(C(=O)NP(N)(N)=O)cc1 [Test Compound 12] | 97.4% | 98.8% | 34.4% | 85.5% | – |
| NP(N)(=O)NC(=O)c1ccc(Cl)cc1 [Test Compound 6] | 87.7% | 98.7% | 5.4% | 86.5% | – |
| Cc1ccccc1C(=O)NP(N)(N)=O [Test Compound 10] | 21.4% | 89.2% | 8.6% | 44.5% | – |
| CC(C)(C)c1ccc(C(=O)NP(N)(N)=O)cc1 [Test Compound 16] | 46.3% | 97.9% | 3.1% | 38.7% | – |
| CCOP(=S)(OCC)Oc1ccc([N+](=O)[O-])cc1 [parathione] | – | – | – | – | HDL [2]: increased; blood plasma level of LDL [2]: markedly decreased; blood plasma level of pseudocholinesterase (pseudocholinesterase [3]): markedly decreased |
| NP(N)(=O)NC(=O)c1ccc(-c2ccccc2)cc1 [Test Compound 24] | – | – | – | – | inhibition at 0.25 µM (pseudocholinesterase [1]; 0.25 μM (footnote b)): 5.3%; inhibition at 2.5 µM (pseudocholinesterase [1]; 2.5 μM (footnote b)): 66.6%; inhibition at 2.5 µM (acetylcholinesterase; 2.5 μM (footnote b)): -3.7%; inhibition at 25 µM (acetylcholinesterase; 25 μM (footnote b)): 34.8% |
| CS(=O)(=O)c1ccc(C(=O)NP(N)(N)=O)cc1 [Test Compound 20, N-(diaminophosphinyl)-4-(methylsulfonyl)benzamide] | 92.9% | 98.5% | 20.5% | 86.4% | – |
| CCCCOc1ccc(C(=O)NP(N)(N)=O)cc1 [Test Compound 22] | 28.8% | 94.9% | 12.6% | 57.4% | – |
| NP(N)(=O)NC(=O)c1ccccc1F [Test Compound 15] | 97.4% | 99.3% | 14.7% | 82.1% | – |
| NP(N)(=O)NC(=O)c1ccc([N+](=O)[O-])cc1 [Test Compound 3] | 90.4% | 99% | 64.3% | 86.9% | – |
| NP(N)(=O)NC(=O)c1cccnc1 [Test Compound 2] | 84.1% | 97.6% | -1.9% | 70.7% | – |
| NP(N)(=O)NC(=O)c1ccco1 [Test Compound 26] | 91% | 98.7% | 7.7% | 73% | – |
| Cc1ccc(C(=O)NP(N)(N)=O)cc1 [Test Compound 9] | 73.7% | 98.1% | 9.6% | 46% | – |
| NP(N)(=O)NC(=O)c1ccccc1Cl [Test Compound 11] | 49.5% | 98.5% | 32.1% | 87.3% | – |
| NP(N)(=O)NC(=O)c1cccc(C(F)(F)F)c1 [Test Compound 14] | 25% | 94.1% | 25.7% | 85.9% | – |
| NP(N)(=O)NC(=O)C=Cc1ccccc1 [Test Compound 23] | 11.5% | 73.2% | 6.6% | 54.8% | – |
| NP(N)(=O)NC(=O)c1cccc(F)c1 [Test Compound 13] | 80.2% | 98.8% | -4% | 41.3% | – |
| Nc1ccc(S(=O)(=O)Nc2cccc(C(=O)NP(N)(N)=O)c2)cc1 [Test Compound 25] | 97.2% | 99% | 62.2% | 88.5% | – |
| NP(N)(=O)NC(=O)c1cccc([N+](=O)[O-])c1 [Test Compound 7] | 65.6% | 98.9% | 23.9% | 86.6% | – |
| NP(N)(=O)NC(=O)Cc1ccccc1 [Test Compound 18] | 10.7% | 61.3% | 17.1% | 85.2% | – |
| Nc1ccc(C(=O)NP(N)(N)=O)cc1 [Test Compound 5] | 57.7% | 98.2% | 1.8% | 32.1% | – |
| NP(N)(=O)NC(=O)c1c(F)cccc1F [Test Compound 21] | 74.4% | 98.7% | 51.1% | 93.7% | – |
| COc1ccc(C(=O)NP(N)(N)=O)cc1 [Test Compound 8] | 83.4% | 96.3% | 3% | 34.2% | – |
| NP(N)(=O)NC(=O)c1ccccc1 [Test Compound 1] | 92.7% | 99.1% | 4.1% | 37.3% | – |
| NP(N)(=O)NC(=O)c1ccc([N+](=O)[O-])o1 [Test Compound 28] | 21% | 90.8% | 46.9% | 93.1% | – |
| NP(N)(=O)NC(=O)c1ccc2ccccc2c1 [Test Compound 17] | – | – | – | – | inhibition at 0.5 µM (pseudocholinesterase [1]; 0.5 μM (footnote a)): 27.4%; inhibition at 5 µM (pseudocholinesterase [1]; 5.0 μM (footnote a)): 95.1%; inhibition at 5 µM (acetylcholinesterase; 5 μM (footnote a)): 16%; inhibition at 50 µM (acetylcholinesterase; 50 μM (footnote a)): 87.2% |
| NP(N)(=O)NC(=O)c1cccc(Oc2ccccc2)c1 [Test Compound 19] | 63.7% | 98.3% | 15.8% | 64.2% | – |
| CC(C)NP(N)(=O)NC(=O)c1ccc(F)cc1 (stereo not drawn) [Test Compound 27, N-[amino-(1-methylethylamino)phosphinyl]-4-fluorobenzamide] | – | – | – | – | inhibition at 10 µM (pseudocholinesterase [1]; 10 μM (footnote c)): 8.7%; inhibition at 100 µM (pseudocholinesterase [1]; 100 μM (footnote c)): 43.3%; inhibition at 50 µM (acetylcholinesterase; 50 μM (footnote c)): 5.8%; inhibition at 500 µM (acetylcholinesterase; 500 μM (footnote c)): 32.2% |
